Reference: patent EP0519971B1, “NOVEL […] ACTIVE COMPOUNDS WHICH CAN BE FORMED FROM 1,3,4,6,7,8-HEXAHYDRO-2H-PYRIMIDO-(1,2-a)-PYRIMIDINE” (priority 1990, dated 1991)

Key:
[1] = Solubility in water of TBD salts (crude samples); type: physicochemical
Description: Solubilities were determined with the crude samples and indicate the volume of water sufficient to dissolve one gram of the salt.

Compound	Solubility in distilled water (pH 6.5)	pH of solution (solution in water)	Solubility in water [1]
C1CN=C2NCCCN2C1.O=C(O)c1cc2ccccc2[nH]1 [Example 2, salt of 1,5,7-triazabicyclo-[4.4.7]dec-5-ene (TBD, HHPP) with indole-2-carboxylic acid]	70 mg/mL	6.5	–
C1CN=C2NCCCN2C1.O=C(O)c1ccc(Cl)cc1[N+](=O)[O-] [Example 8, TBD 4-chloro-2-nitrobenzoate]	–	–	≥ 10 g/100ml
C1CN=C2NCCCN2C1.O=C(O)Cc1ccc([N+](=O)[O-])cc1 [Example 9, TBD 4-nitrophenylacetate]	–	–	≥ 20 g/100ml
C1CN=C2NCCCN2C1.O=C(O)Cc1ccc([N+](=O)[O-])cc1[N+](=O)[O-] [Example 10, TBD 2,4-dinitrophenylacetate]	–	–	≥ 30 g/100ml
C1CN=C2NCCCN2C1.O=C(O)c1cc(Cl)ccc1[N+](=O)[O-] [Example 11, TBD 5-chloro-2-nitrobenzoate]	–	–	≥ 40 g/100ml
C1CN=C2NCCCN2C1.O=C(O)c1ccc(Cl)c([N+](=O)[O-])c1 [Example 12, TBD 4-chloro-3-nitrobenzoate]	–	–	≥ 40 g/100ml
C1CN=C2NCCCN2C1.O=C(O)c1cc([N+](=O)[O-])ccc1O [Example 13, TBD 5-nitrosalicylate (2-hydroxy-5-nitrobenzoate)]	–	–	≥ 160 g/100ml
C1CN=C2NCCCN2C1.O=C(O)c1ccc([N+](=O)[O-])c(O)c1 [Example 14, TBD 3-hydroxy-4-nitrobenzoate]	–	–	≥ 30 g/100ml
C1CN=C2NCCCN2C1.O=C(O)c1ccccc1I [Example 15, TBD 2-iodobenzoate]	–	–	≥ 10 g/100ml
C1CN=C2NCCCN2C1.C1CN=C2NCCCN2C1.O=C(O)c1cc(C(=O)O)cc([N+](=O)[O-])c1 [Example 17, TBD 5-nitroisophthalate (5-nitrobenzene-1,3-dicarboxylic acid bis TBD salt)]	–	–	≥ 30 g/100ml
TBD 5-amino-5-hydroxybenzoate [Example 16]	–	–	≥ 10 g/100ml
